Assay results from patent US20130123222A1, “Synergistic Anti-Cancer Activity of SR16388 with Anti-Mitotic Drugs” (SRI INTERNATIONAL, INC., priority 2011, published 2013).

Tests used:
7860 = assay: 11×7 synergism hit rate; format: cell-based; settings: Renal Cancer 7860, combination with SR16388
Text: (§1) SR16388 was synthesized in house.
(§2) Within the same type of cancer cells, some cell lines have more synergistic hits than others. Melanoma and breast cancer cell lines had the highest hit rate.

ACHN = assay: 11×7 synergism hit rate; format: cell-based; settings: Renal Cancer ACHN, combination with SR16388
Text: as §1, §2

CAKI1 = assay: 11×7 synergism hit rate; format: cell-based; settings: Renal Cancer CAKI1, combination with SR16388
Text: as §1, §2

CCRFCEM = assay: 11×7 synergism hit rate; format: cell-based; settings: Leukemia CCRFCEM, combination with SR16388
Text: as §1, §2

DU145 = assay: 11×7 synergism hit rate; format: cell-based; settings: Prostate Cancer DU145, combination with SR16388
Text: as §1, §2

EKVX = assay: 11×7 synergism hit rate; format: cell-based; settings: NSCLC EKVX, combination with SR16388
Text: as §1, §2

HCT116 = assay: 11×7 synergism hit rate; format: cell-based; settings: Colon Cancer HCT116, combination with SR16388
Text: as §1, §2

HCT15 = assay: 11×7 synergism hit rate; format: cell-based; settings: Colon Cancer HCT15, combination with SR16388
Text: as §1, §2

HOP62 = assay: 11×7 synergism hit rate; format: cell-based; settings: NSCLC HOP62, combination with SR16388
Text: as §1, §2

HOP92 = assay: 11×7 synergism hit rate; format: cell-based; settings: NSCLC HOP92, combination with SR16388
Text: as §1, §2

HT29 = assay: 11×7 synergism hit rate; format: cell-based; settings: Colon Cancer HT29, combination with SR16388
Text: as §1, §2

MALME = assay: 11×7 synergism hit rate; format: cell-based; settings: Melanoma MALME, combination with SR16388
Text: as §1, §2

MCF7 = assay: 11×7 synergism hit rate; format: cell-based; settings: Breast Cancer MCF7, combination with SR16388
Text: as §1, §2

MDAMB435 = assay: 11×7 synergism hit rate; format: cell-based; settings: Melanoma MDAMB435, combination with SR16388
Text: as §1, §2

MDAMB468 = assay: 11×7 synergism hit rate; format: cell-based; settings: Breast Cancer MDAMB468, combination with SR16388
Text: as §1, §2

MOLT4 = assay: 11×7 synergism hit rate; format: cell-based; settings: Leukemia MOLT4, combination with SR16388
Text: as §1, §2

NCIH23 = assay: 11×7 synergism hit rate; format: cell-based; settings: NSCLC NCIH23, combination with SR16388
Text: as §1, §2

NCIH322M = assay: 11×7 synergism hit rate; format: cell-based; settings: NSCLC NCIH322M, combination with SR16388
Text: as §1, §2

OVCAR3 = assay: 11×7 synergism hit rate; format: cell-based; settings: Ovarian Cancer OVCAR3, combination with SR16388
Text: as §1, §2

OVCAR8 = assay: 11×7 synergism hit rate; format: cell-based; settings: Ovarian Cancer OVCAR8, combination with SR16388
Text: as §1, §2

RPMI8226 = assay: 11×7 synergism hit rate; format: cell-based; settings: Leukemia RPMI8226, combination with SR16388
Text: as §1, §2

SF268 = assay: 11×7 synergism hit rate; format: cell-based; settings: CNS Cancer SF268, combination with SR16388
Text: as §1, §2

SF295 = assay: 11×7 synergism hit rate; format: cell-based; settings: CNS Cancer SF295, combination with SR16388
Text: as §1, §2

SF539 = assay: 11×7 synergism hit rate; format: cell-based; settings: CNS Cancer SF539, combination with SR16388
Text: as §1, §2

SKMEL28 = assay: 11×7 synergism hit rate; format: cell-based; settings: Melanoma SKMEL28, combination with SR16388
Text: as §1, §2

SKMEL5 = assay: 11×7 synergism hit rate; format: cell-based; settings: Melanoma SKMEL5, combination with SR16388
Text: as §1, §2

SKOV3 = assay: 11×7 synergism hit rate; format: cell-based; settings: Ovarian Cancer SKOV3, combination with SR16388
Text: as §1, §2

SN12C = assay: 11×7 synergism hit rate; format: cell-based; settings: Renal Cancer SN12C, combination with SR16388
Text: as §1, §2

SNB75 = assay: 11×7 synergism hit rate; format: cell-based; settings: CNS Cancer SNB75, combination with SR16388
Text: as §1, §2

SR = assay: 11×7 synergism hit rate; format: cell-based; settings: Leukemia SR, combination with SR16388
Text: as §1, §2

SW620 = assay: 11×7 synergism hit rate; format: cell-based; settings: Colon Cancer SW620, combination with SR16388
Text: as §1, §2

U031 = assay: 11×7 synergism hit rate; format: cell-based; settings: Renal Cancer U031, combination with SR16388
Text: as §1, §2

U251 = assay: 11×7 synergism hit rate; format: cell-based; settings: CNS Cancer U251, combination with SR16388
Text: as §1, §2

UACC257 = assay: 11×7 synergism hit rate; format: cell-based; settings: Melanoma UACC257, combination with SR16388
Text: as §1, §2

A549 = assay: 11×7 synergism hit rate; format: cell-based; settings: NSCLC A549, combination with SR16388
Text: as §1

[1] = tested on: various cancer cell lines; assay: 11×7 synergism hit rate over all cell lines (by algorism); format: cell-based
Text: as §1, §2

cancer cell lines = assay: Combination cell viability assay, general observations on ratios and confirmed synergy; format: cell-based; settings: in combination with SR16388
Protocol: Cells were treated with compounds alone or in combination for three days and CellTiter-Glo® Luminescent Cell Viability Assay (Promega Corp.) was used as the endpoint to measure cell viability. […] Cells were harvested on Day-1 (FIG. 1A) and re-supspended to the corresponding seeding density and seeded with Wellmate (ThermoFisher) to 384 plates (BD or GBO). […] Master plates were made with Janus (PerkinElmer), then further diluted and added to the cell plates with Matrix Platemate (Thermo) on Day 0. CellTiter-Glo® Luminescent Cell Viability Assay (Promega Corp.) was used to measure ATP as an indicator of viable cells on Day 3 using Envision (PerkinElmer) and back up reader Analyst HT (MDS) and Gen5 (BioTek). Relative Luminescent Units (RLU) were plotted against corresponding drug concentrations and fitted with standard four parameter sigmoidal curve with custom coded R program or Calcusyn (Biosoft, Cambridge, UK).

[2] = tested on: panel of 48 to 60 cell lines; assay: 5×4 combination screen with SR16388, CellTiter-Glo viability; synergy by pattern recognition
Protocol: Cells were treated with compounds alone or in combination for three days and CellTiter-Glo® Luminescent Cell Viability Assay (Promega Corp.) was used as the endpoint to measure cell viability.
Cells were cultured in DMEM with 10% fetal bovine serum and used between passage 2 and passage 20. Cells were harvested on Day-1 (FIG. 1A) and re-supspended to the corresponding seeding density and seeded with Wellmate (ThermoFisher) to 384 plates (BD or GBO).
40 mM Compound stocks in 100% DMSO were made. Master plates were made with Janus (PerkinElmer), then further diluted and added to the cell plates with Matrix Platemate (Thermo) on Day 0.
CellTiter-Glo® Luminescent Cell Viability Assay (Promega Corp.) was used to measure ATP as an indicator of viable cells on Day 3 using Envision (PerkinElmer) and back up reader Analyst HT (MDS) and Gen5 (BioTek).
Single point, 5×4 checkque board platemap was used in the initial screening.
Relative Luminescent Units (RLU) were plotted against corresponding drug concentrations and fitted with standard four parameter sigmoidal curve with custom coded R program or Calcusyn (Biosoft, Cambridge, UK).

[3] = in combination with SR16388, 5x4-T1, pattern recognition, of 60 cell lines incl. no data

Compound: CC[C@]1(O)C[C@H]2CN(CCc3c([nH]c4ccccc34)[C@@](C(=O)OC)(c3cc4c(cc3OC)N(C=O)[C@H]3[C@@](O)(C(=O)OC)[C@H](OC(C)=O)[C@]5(CC)C=CCN6CC[C@]43[C@@H]65)C2)C1 [Vincristine]
- % Hit rate 7860: 18%
- % Hit rate (ACHN): 8%
- % Hit rate (CAKI1): 13%
- % Hit rate (CCRFCEM): 8%
- % Hit rate (DU145): 1%
- % Hit rate (EKVX): 1%
- % Hit rate (HCT116): 6%
- % Hit rate (HCT15): 9%
- % Hit rate (HOP62): 0%
- % Hit rate (HOP92): 8%
- % Hit rate (HT29): 10%
- % Hit rate (MALME): 14%
- % Hit rate (MCF7): 25%
- % Hit rate (MDAMB435): 6%
- % Hit rate (MDAMB468): 5%
- % Hit rate (MOLT4): 16%
- % Hit rate (NCIH23): 4%
- % Hit rate (NCIH322M): 18%
- % Hit rate (OVCAR3): 3%
- % Hit rate (OVCAR8): 10%
- % Hit rate (RPMI8226): 0%
- % Hit rate (SF268): 18%
- % Hit rate (SF295): 21%
- % Hit rate (SF539): 12%
- % Hit rate (SKMEL28): 22%
- % Hit rate (SKMEL5): 14%
- % Hit rate (SKOV3): 19%
- % Hit rate (SN12C): 14%
- % Hit rate (SNB75): 9%
- % Hit rate (SR): 0%
- % Hit rate (SW620): 5%
- % Hit rate (U031): 12%
- % Hit rate (U251): 4%
- % Hit rate (UACC257): 25%
- % Hit rate (A549): 10%
- % Hit rate ([1]; combination with SR16388, identified by algorism, all cell lines): 10.91%
- interaction with SR16388 in 11×7 experiments ([1]; in combination with SR16388): synergistic effect
- interaction with SR16388 (confirmed) (cancer cell lines): synergistic anti-proliferation effect
- interaction with SR16388 in the screen of 30 cancer therapeutic agents [2]: Synergistic anti-proliferation
- no effect (number of cell lines) [2, 3]: 19
- synergy (number of cell lines) [2, 3]: 23
- % synergy ([2]; in combination with SR16388, 5x4-T1, share of cell lines with data): 55%
